In assay [1] the target is Pseudomonas aeruginosa thymidylate monophosphate kinase (TMK) (Pseudomonas aeruginosa, UniProt Q9HZN8). As to the kind of experiment: Thymidylate kinase kinetic assay. The following applies: for fold improved inhibition over 1: PaTMK IC50 compared with 1; for fold decreased inhibition compared with 17: PaTMK IC50 compared with 17; for fold improved potency over 19: PaTMK IC50 compared with secondary amide 19. The class given is biochemical.

The next assay concerns the target TMK. The following applies: high binding affinity due to LID loop closure; cited from earlier work.

Chain of Pseudomonas aeruginosa thymidylate monophosphate kinase (TMK) (Q9HZN8 whole entry): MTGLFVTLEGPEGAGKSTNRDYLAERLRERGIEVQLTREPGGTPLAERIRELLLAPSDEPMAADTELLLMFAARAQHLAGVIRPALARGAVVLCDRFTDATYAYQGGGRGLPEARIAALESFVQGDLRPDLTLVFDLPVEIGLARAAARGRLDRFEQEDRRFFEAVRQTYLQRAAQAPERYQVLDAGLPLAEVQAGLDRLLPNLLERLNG

For the compound `Cn1c(=O)[nH]c2ncc(-c3cccc(C#N)c3)cc21` [Compound 14, 3-(1-Methyl-2-oxo-2,3-dihydro-1H-imidazo[4,5-b]pyridin-6-yl)benzonitrile], the “PaTMK inhibition (in words)” value in assay [1] is “inactive”. On the same count and under the same terms, for `Cl.Cn1c(=O)[nH]c2ncc(-c3cccc(CN)c3)cc21` [Compound 15, 6-(3-(Aminomethyl)phenyl)-1-methyl-1H-imidazo[4,5-b]pyridin-2(3H)-one hydrochloride] the value was “lack of activity”. For the compound `Cn1c(=O)[nH]c2ncc(-c3cccc(C(N)=O)c3)cc21` [Compound 17, 3-(1-Methyl-2-oxo-2,3-dihydro-1H-imidazo[4,5-b]pyridin-6-yl)benzamide], the “fold improved inhibition over 1” value in assay [1] came out at 130 fold. In assay [1] (compared with 26 (p-carboxamide)), the “fold increase of PaTMK inhibition over 26” value is given as “ca. 1000 fold”. For the compound `CNC(=O)c1cccc(-c2cnc3[nH]c(=O)n(C)c3c2)c1` [Compound 19, N-Methyl-3-(1-methyl-2-oxo-2,3-dihydro-1H-imidazo[4,5-b]pyridin-6-yl)benzamide], in assay [1], the “fold improved inhibition over 1” value stood at 30 fold and the “fold decreased inhibition compared with 17” value is 5 fold.

For the compound `CN(C)C(=O)c1cccc(-c2cnc3[nH]c(=O)n(C)c3c2)c1` [Compound 20, N,N-Dimethyl-3-(1-methyl-2-oxo-2,3-dihydro-1H-imidazo[4,5-b]pyridin-6-yl)benzamide], the “fold decreased inhibition compared with 17” value in assay [1] is on record as 240 fold. As to `Cn1c(=O)[nH]c2ncc(-c3cccc(C(=O)NCC(N)=O)c3)cc21` [Compound 30, N-(2-Amino-2-oxoethyl)-3-(1-methyl-2-oxo-2,3-dihydro-1H-imidazo[4,5-b]pyridin-6-yl)benzamide], in assay [1], the “fold improved potency over 19” value is on record as “about 2.5 fold”. Still for that read-out and setting: in the case of `Cn1c(=O)[nH]c2ncc(-c3cccc(C(=O)NCC(=O)O)c3)cc21` [Compound 31, 2-(3-(1-Methyl-2-oxo-2,3-dihydro-1H-imidazo[4,5-b]pyridin-6-yl)benzamido)acetic acid] it was “about 2.5 fold”; in that of `Cn1c(=O)[nH]c2ncc(-c3cccc(C(=O)NCCCc4ccc(F)cc4)c3)cc21` [Compound 47, N-(3-(4-Fluorophenyl)propyl)-3-(1-methyl-2-oxo-2,3-dihydro-1H-imidazo[4,5-b]pyridin-6-yl)benzamide], “ca. 18 fold”. Take `Cn1c(=O)[nH]c2ncc(-c3cccc(C(=O)NCCCc4c[nH]c5ccccc45)c3)cc21` [Compound 48, N-(3-(1H-Indol-3-yl)propyl)-3-(1-methyl-2-oxo-2,3-dihydro-1H-imidazo[4,5-b]pyridin-6-yl)benzamide]: the “fold improved potency over 19” value in assay [1] is “ca. 18 fold”. Same read-out and setting: for `Cn1c(=O)[nH]c2ncc(-c3cccc(C(=O)NCC(Cc4ccccc4)C(=O)O)c3)cc21` (centres unmarked) [Compound 53, 2-Benzyl-3-(3-(1-methyl-2-oxo-2,3-dihydro-1H-imidazo[4,5-b]pyridin-6-yl)benzamido)propanoic acid] the value was “ca. 18 fold”.

As for `Cn1c(=O)[nH]c2ncc(-c3cccc(C(=O)NCCCc4ccc(C(F)(F)F)cc4)c3)cc21` [Compound 57, 3-(1-Methyl-2-oxo-2,3-dihydro-1H-imidazo[4,5-b]pyridin-6-yl)-N-(3-(4-(trifluoromethyl)phenyl)propyl)benzamide], in assay [1], the “fold improved potency over 19” value is listed as “ca. 18 fold”. Broadly, the Kd is a measure of binding affinity in units of concentration. For `Cc1cn([C@H]2C[C@H](O)[C@@H](COP(=O)(O)OP(=O)(O)OP(=O)(O)OP(=O)(O)OP(=O)(O)OC[C@H]3O[C@@H](n4cnc5c(N)ncnc54)[C@H](O)[C@@H]3O)O2)c(=O)[nH]c1=O` [TP5A, P1-(5′-adenosyl)-P5-(5′-thymidyl)pentaphosphate], the equilibrium dissociation constant (Kd) at TMK was 20 nM.

Values taken from publication PMC3306445 (Journal of Medicinal Chemistry, 2012).
